In patent US10525041B2, “Fluoroalkyl-substituted aryltriazole derivatives and uses thereof” (BAYER PHARMA AKTIENGESELLSCHAFT, priority 2016, dated 2020):

Assays:
human V1a receptor = target: T1, human V1a receptor (Homo sapiens, UniProt P37288); experiment: Cellular in vitro assay for vasopressin receptor activity, V1a cell line (aequorin luminescence); assay type: cell-based; settings: for IC50: CHO cell line transfected with human V1a receptor, agonist [Arg8]-vasopressin at EC50 concentration, read-out: IC50hV1a; for ratio IC50 hV2/hV1a: ratio of the IC50 on human V2 to the IC50 on human V1a
T1 construct: expressed in transfected cells; host or cells: CHO K1 (ATCC), also stably transfected with a modified aequorin
T1 sequence (P37288 whole entry): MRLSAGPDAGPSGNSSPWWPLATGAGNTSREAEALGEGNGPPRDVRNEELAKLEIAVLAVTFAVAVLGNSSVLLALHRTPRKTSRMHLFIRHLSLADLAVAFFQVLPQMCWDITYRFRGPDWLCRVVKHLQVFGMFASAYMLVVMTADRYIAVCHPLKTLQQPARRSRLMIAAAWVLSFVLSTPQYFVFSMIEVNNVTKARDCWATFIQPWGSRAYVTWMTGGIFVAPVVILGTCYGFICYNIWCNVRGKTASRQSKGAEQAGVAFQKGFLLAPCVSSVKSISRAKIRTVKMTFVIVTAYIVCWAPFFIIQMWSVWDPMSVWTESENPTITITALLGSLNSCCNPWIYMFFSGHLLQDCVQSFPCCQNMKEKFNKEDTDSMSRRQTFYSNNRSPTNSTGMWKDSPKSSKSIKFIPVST
Procedure: (§1) B-1. Cellular In Vitro Assay for Determining Vasopressin Receptor Activity
(§2) The identification of agonists and antagonists of the V1a and V2 vasopressin receptors from humans, rats and dogs as well as the quantification of the activity of the compounds of the invention is carried out using recombinant cell lines. These cell lines originally derive from a hamster's ovary epithelial cell (Chinese Hamster Ovary, CHO K1, ATCC: American Type Culture Collection, Manassas, Va. 20108, USA). The test cell lines constitutively express the human, rat or dog V1a or V2 receptors. In case of the Gαq-coupled V1a receptors, cells are also stably transfected with a modified form of the calcium-sensitive photoproteins aequorin (human and rat V1a) or obelin (dog V1a), which, after reconstitution with the cofactor coelenterazine, emit light when there are increases in free calcium concentrations [Rizzuto R, Simpson A W, Brini M, Pozzan T, Nature 358, 325-327 (1992); Illarionov B A, Bondar V S, Illarionova V A, Vysotski E S, Gene 153 (2), 273-274 (1995)]. The resulting vasopressin receptor cells react to stimulation of the recombinantly expressed V1a receptors by intracellular release of calcium ions, which can be quantified by the resulting photoprotein luminescence. The Gs-coupled V2 receptors are stably transfected into cell lines expressing the gene for firefly luciferase under control of a CRE-responsible promoter. Activation of V2 receptors induces the activation of the CRE-responsive promoter via cAMP increase, thereby inducing the expression of firefly luciferase. The light emitted by photoproteins of V1a cell lines as well as the light emitted by firefly luciferase of V2 cell lines corresponds to the activation or inhibition of the respective vasopressin receptor. The bioluminescence of the cell lines is detected using a suitable luminometer [Milligan G, Marshall F, Rees S, Trends in Pharmacological Sciences 17, 235-237 (1996)].
Vasopressin V1a Receptor Cell Lines:
On the day before the assay, the cells are plated out in culture medium (DMEM/F12, 2% FCS, 2 mM glutamine, 10 mM HEPES, 5 μg/ml coelenterazine) in 384-well microtiter plates and kept in a cell incubator (96% humidity, 5% v/v CO2, 37° C.). On the day of the assay, test compounds in various concentrations are placed for 10 minutes in the wells of the microtiter plate before the agonist [Arg^8]-vasopressin at EC50 concentration is added. The resulting light signal is measured immediately in a luminometer.
(§3) Table 1A below lists individual IC50 values for the compounds of the invention (including racemic mixtures as well as separated enantiomers) that were obtained from cell lines transfected with the human V1a or V2 receptor: […]

human V2 receptor = target: T2, human V2 receptor (Homo sapiens, UniProt P30518); experiment: Cellular in vitro assay for vasopressin receptor activity, V2 cell line (CRE-luciferase); assay type: cell-based; settings: CHO cell line transfected with human V2 receptor; agonist [Arg8]-vasopressin at EC50 concentration, 3 hours; read-out: IC50hV2
T2 construct: expressed in transfected cells; host or cells: CHO K1 (ATCC) line expressing firefly luciferase under a CRE-responsive promoter
T2 sequence (P30518 whole entry): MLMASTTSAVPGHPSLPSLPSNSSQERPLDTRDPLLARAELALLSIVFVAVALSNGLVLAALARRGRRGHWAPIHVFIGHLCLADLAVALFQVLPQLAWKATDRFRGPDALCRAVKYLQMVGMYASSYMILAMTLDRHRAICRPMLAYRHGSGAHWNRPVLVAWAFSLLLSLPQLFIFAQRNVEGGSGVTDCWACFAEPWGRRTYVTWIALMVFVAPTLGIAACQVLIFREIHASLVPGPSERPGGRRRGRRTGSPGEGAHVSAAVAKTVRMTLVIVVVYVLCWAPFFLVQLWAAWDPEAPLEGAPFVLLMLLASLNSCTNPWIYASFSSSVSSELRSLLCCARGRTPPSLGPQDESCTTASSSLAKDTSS
Procedure: as §1, §2
Vasopressin V2 Receptor Cell Lines:
On the day before the assay, the cells are plated out in culture medium (DMEM/F12, 2% FCS, 2 mM glutamine, 10 mM HEPES) in 384-well microtiter plates and kept in a cell incubator (96% humidity, 5% v/v CO2, 37° C.). On the day of the assay, test compounds in various concentrations and the agonist [Arg^8]-vasopressin at EC50 concentration are added together to the wells, and plates are incubated for 3 hours in a cell incubator. Upon addition of the cell lysis reagent Triton™ and the substrate luciferin, luminescence of firefly luciferase is measured in a luminometer.
as §3

| Compound | IC50 (human V1a receptor) [nM] | ratio IC50 hV2/hV1a (human V1a receptor) | IC50 (human V2 receptor) [nM] |
| --- | --- | --- | --- |
| CC(F)c1nc(Cn2nc(-c3ccc(Cl)cc3)n(C[C@H](O)C(F)(F)F)c2=O)nn1-c1c(F)cccc1F (mixture of isomers) [Example 45, 5-(4-Chlorophenyl)-2-({1-(2,6-difluorophenyl)-5-[1-fluoroethyl]-1H-1,2,4-triazol-3-yl}methyl)-4-[(2S)-3,3,3-trifluoro-2-hydroxypropyl]-2,4-dihydro-3H-1,2,4-triazol-3-one] | 2.2 | 1.3 | 2.97 |
| Cc1cccc(C)c1-n1nc(Cn2nc(-c3ccc(Cl)cc3)n(C[C@H](O)C(F)(F)F)c2=O)nc1C(C)F (mixture of isomers) [Example 46, 5-(4-Chlorophenyl)-2-({1-(2,6-dimethylphenyl)-5-[1-fluoroethyl]-1H-1,2,4-triazol-3-yl}methyl)-4-[(2S)-3,3,3-trifluoro-2-hydroxypropyl]-2,4-dihydro-3H-1,2,4-triazol-3-one] | 3.2 | 0.5 | 1.74 |
| CC(C)c1ccccc1-n1nc(Cn2nc(-c3ccc(Cl)cc3)n(C[C@H](O)C(F)(F)F)c2=O)nc1C(C)F (mixture of isomers) [Example 47, 5-(4-Chlorophenyl)-2-({5-[1-fluoroethyl]-1-[2-(propan-2-yl)phenyl]-1H-1,2,4-triazol-3-yl}methyl)-4-[(2S)-3,3,3-trifluoro-2-hydroxypropyl]-2,4-dihydro-3H-1,2,4-triazol-3-one] | 30 | 1.2 | 35 |
| CCc1cccc(C)c1-n1nc(Cn2nc(-c3ccc(Cl)cc3)n(C[C@H](O)C(F)(F)F)c2=O)nc1C(C)F (mixture of isomers) [Example 48, 5-(4-Chlorophenyl)-2-({1-(2-ethyl-6-methylphenyl)-5-[1-fluoroethyl]-1H-1,2,4-triazol-3-yl}methyl)-4-[(2S)-3,3,3-trifluoro-2-hydroxypropyl]-2,4-dihydro-3H-1,2,4-triazol-3-one] | 30.5 | 0.2 | 4.9 |
| CC(F)c1nc(Cn2nc(-c3ccc(Cl)cc3)n(C[C@H](O)C(F)(F)F)c2=O)nn1-c1cnccc1Cl (single isomer, unassigned) [Example 5] | 6.95 | 10.8 | 74.8 |
| CC(F)c1nc(Cn2nc(-c3ccc(Cl)cc3)n(C[C@H](O)C(F)(F)F)c2=O)nn1-c1ncccc1C(F)(F)F (single isomer, unassigned) [Example 11] | 13.5 | 5.5 | 73.8 |
| CC(F)c1nc(Cn2nc(-c3ccc(Cl)cc3)n(C[C@H](O)C(F)(F)F)c2=O)nn1-c1ncccc1C(F)(F)F (single isomer, unassigned) [Example 12] | 3.8 | 5.9 | 22.5 |
| CC(F)c1nc(Cn2nc(-c3ccc(Cl)cc3)n(C[C@H](O)C(F)(F)F)c2=O)nn1-c1cccc(F)c1 (single isomer, unassigned) [Example 14] | 9.7 | 0.2 | 1.73 |
| CC(F)c1nc(Cn2nc(-c3ccc(Cl)cc3)n(C[C@H](O)C(F)(F)F)c2=O)nn1-c1cccc(F)c1 (single isomer, unassigned) [Example 15] | 12.5 | 0.6 | 7.85 |
| CC(F)c1nc(Cn2nc(-c3ccc(Cl)cc3)n(C[C@H](O)C(F)(F)F)c2=O)nn1-c1cccc(Cl)c1 (single isomer, unassigned) [Example 17] | 9.25 | 0.0 | 0.25 |
| CC(F)c1nc(Cn2nc(-c3ccc(Cl)cc3)n(C[C@H](O)C(F)(F)F)c2=O)nn1-c1cccc(Cl)c1 (single isomer, unassigned) [Example 18] | 60 | 0.1 | 3.85 |
| CC(F)c1nc(Cn2nc(-c3ccc(Cl)cc3)n(C[C@H](O)C(F)(F)F)c2=O)nn1-c1ncccc1Cl (single isomer, unassigned) [Example 20] | 1.35 | 4.4 | 5.95 |
| CC(F)c1nc(Cn2nc(-c3ccc(Cl)cc3)n(C[C@H](O)C(F)(F)F)c2=O)nn1-c1ncccc1Cl (single isomer, unassigned) [Example 21] | 1.55 | 8.1 | 12.5 |
| CC(F)c1nc(Cn2nc(-c3ccc(Cl)cc3)n(C[C@H](O)C(F)(F)F)c2=O)nn1-c1ccccc1C(F)(F)F (single isomer, unassigned) [Example 23] | 3.75 | 8.8 | 33 |
| CC(F)c1nc(Cn2nc(-c3ccc(Cl)cc3)n(C[C@H](O)C(F)(F)F)c2=O)nn1-c1ccccc1OC(F)(F)F (single isomer, unassigned) [Example 26] | 3 | 5.8 | 17.5 |
| CC(F)c1nc(Cn2nc(-c3ccc(Cl)cc3)n(C[C@H](O)C(F)(F)F)c2=O)nn1-c1ccccc1OC(F)(F)F (single isomer, unassigned) [Example 27] | 1.75 | 5.6 | 9.8 |
| CCc1ccccc1-n1nc(Cn2nc(-c3ccc(Cl)cc3)n(C[C@H](O)C(F)(F)F)c2=O)nc1C(C)F (single isomer, unassigned) [Example 30] | 1.85 | 1.0 | 1.9 |

Stronger by IC50 (human V1a receptor), values ahead:

| IC50 (human V1a receptor) [nM] | ratio IC50 hV2/hV1a (human V1a receptor) | IC50 (human V2 receptor) [nM] | Compound |
| --- | --- | --- | --- |
| 1.25 | 15.8 | 19.8 | CC(F)c1nc(Cn2nc(-c3ccc(Cl)cc3)n(C[C@H](O)C(F)(F)F)c2=O)nn1-c1cnccc1C(F)(F)F (single isomer, unassigned) [Example 8] |
| 1.1 | 4.2 | 4.65 | CC(F)c1nc(Cn2nc(-c3ccc(Cl)cc3)n(C[C@H](O)C(F)(F)F)c2=O)nn1-c1ccccc1C(F)(F)F (single isomer, unassigned) [Example 24] |
| 1 | 7.1 | 7.05 | CC(F)c1nc(Cn2nc(-c3ccc(Cl)cc3)n(C[C@H](O)C(F)(F)F)c2=O)nn1-c1cnccc1C(F)(F)F (single isomer, unassigned) [Example 9] |
| 0.91 | 0.4 | 0.37 | CCc1ccccc1-n1nc(Cn2nc(-c3ccc(Cl)cc3)n(C[C@H](O)C(F)(F)F)c2=O)nc1C(C)F (single isomer, unassigned) [Example 29] |
| 0.9 | 1.0 | 0.93 | CC(F)c1nc(Cn2nc(-c3ccc(Cl)cc3)n(C[C@H](O)C(F)(F)F)c2=O)nn1-c1ccccc1Cl (single isomer, unassigned) [Example 3] |
| 0.85 | 0.5 | 0.45 | CSc1ccccc1-n1nc(Cn2nc(-c3ccc(Cl)cc3)n(C[C@H](O)C(F)(F)F)c2=O)nc1C(C)F (mixture of isomers) [Example 49, 5-(4-Chlorophenyl)-2-({5-[1-fluoroethyl]-1-[2-(methylsulfanyl)phenyl]-1H-1,2,4-triazol-3-yl}methyl)-4-[(2S)-3,3,3-trifluoro-2-hydroxypropyl]-2,4-dihydro-3H-1,2,4-triazol-3-one] |
| 0.48 | 5.0 | 2.37 | CC(F)c1nc(Cn2nc(-c3ccc(Cl)cc3)n(C[C@H](O)C(F)(F)F)c2=O)nn1-c1cnccc1Cl (single isomer, unassigned) [Example 6] |
| 0.36 | 3.8 | 1.34 | CC(F)c1nc(Cn2nc(-c3ccc(Cl)cc3)n(C[C@H](O)C(F)(F)F)c2=O)nn1-c1ccccc1Cl (single isomer, unassigned) [Example 2] |
